{
  "source": "paper PMC6526117",
  "about": "(Experimental Neurobiology, 2019)",
  "assay_in_all_cases": "whole-cell patch clamp, SCAM block of ICl,swell",
  "assay_type_in_all_cases": "cell-based",
  "details_in_all_cases": "read-out: % block",
  "key": {"[1]": {"target": "T1, TTYH1 (Mus musculus, UniProt Q9D3A9, R165C)", "T1 sequence (Q9D3A9 1-450 R165C)": "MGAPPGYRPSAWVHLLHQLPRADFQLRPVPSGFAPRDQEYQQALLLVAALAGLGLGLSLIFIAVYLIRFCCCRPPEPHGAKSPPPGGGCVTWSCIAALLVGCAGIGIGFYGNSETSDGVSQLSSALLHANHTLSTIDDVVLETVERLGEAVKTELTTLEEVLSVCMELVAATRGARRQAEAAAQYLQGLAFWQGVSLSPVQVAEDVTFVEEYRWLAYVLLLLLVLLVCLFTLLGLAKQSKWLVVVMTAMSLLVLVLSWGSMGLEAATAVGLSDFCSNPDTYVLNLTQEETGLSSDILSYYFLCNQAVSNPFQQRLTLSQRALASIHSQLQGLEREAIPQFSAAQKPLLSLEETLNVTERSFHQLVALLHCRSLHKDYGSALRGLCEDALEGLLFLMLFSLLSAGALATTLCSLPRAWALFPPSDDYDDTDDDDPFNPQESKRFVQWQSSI"}, "[2]": {"target": "T2, TTYH1 (Mus musculus, UniProt Q9D3A9, V164C)", "T2 sequence (Q9D3A9 1-450 V164C)": "T1 sequence (Q9D3A9 1-450 R165C) with V164C, C165R"}, "[3]": {"target": "T3, TTYH1 (Mus musculus, UniProt Q9D3A9)", "T3 sequence (Q9D3A9 1-450)": "T1 sequence (Q9D3A9 1-450 R165C) with C165R"}},
  "note": "Where a chain is given by its changes, count along the chain named.",
  "data": [
    {"smiles": "CS(=O)(=O)SCCS(=O)(=O)O", "note": "[MTSES]", "values": [
      {"measurement": "inhibition at 100000 µM", "setting": "[1]", "result": 36.6, "unit": "%"},
      {"measurement": "inhibition at 100000 µM", "setting": "[2]", "result": 28.9, "unit": "%"},
      {"measurement": "inhibition at 100000 µM", "setting": "[3]", "result": 9.01, "unit": "%"}
    ]}
  ]
}
